# Measured values from patent publication EP2444396A1, “PHOTOPROTECTIVE COMPOSITION” (Apoteknos Para La Piel, S.L., priority 2009, dated 2010).
# “And” between values parts separate entries of the source, which are not always exact repeats. Identical values can stand only once. Marks after values point to notes of the source that are not given here.
# Experiments:
# [1] = biological target: T1, ERβ (Homo sapiens, UniProt Q92731); assay: Estrogenicity reporter gene bioassay (luciferase activity) in HELN-ERβ cells; assay type: cell-based
# T1 construct: expressed in transfected cells; host or cells: HeLa (HELN-ERβ)
# Excerpt: (§1) Briefly, the transactivation bioassay (Reporter gene assay) used are based on the use of breast and uterine cancer cell lines transfected with different native or modified hormone receptors. The resulting cell lines further contain a reporter gene regulated by estrogens through the estrogen response element, the globin promoter and the luciferase gene.
# HELN-ERα and HELN-ERβ cell lines were obtained by means of transfecting the HeLa uterine cancer cell line. In a first phase, said cells were transfected with an estrogen sensitive response element and then with the estrogen receptor alpha or beta (ERα or ERβ). The selection of clones resistant to geneticin and puromycin was performed using a concentration of 1 mg/mL and 0.5 mg/mL, respectively. The maintenance medium as well as the experimental medium of these 2 cell lines is DMEM F12 without phenol red supplemented with 6% of FBS (lacking of estrogens), 1% of penicillin / streptomycin, 1 mg/mL of geneticin and 0.5 µg/mL of puromycin.
# (§2) The cells were seeded at a density of 5x10^4 cells per well in white opaque 96 well plates in 150 µL of experimental medium. After 8 hours, the compounds to be assayed (p-nitrolophine and estradiol) were prepared (concentrated 4x) in the same medium and were added to each well (50 µl). The cells were incubated for 16 hours at 37°C. At the end of the incubation, the medium was removed and replaced with fresh medium containing […] luciferin [at that concentration, luciferin diffuses into cell producing a luminescent signal which is stable after 5 minutes and for at least 2 hours]. The plates were then introduced in the luminometer to measure the luminescence for 2 seconds. A YicroBeta Trilux luminometer (EGG Wallac) apparatus was used to detect luciferase activity.
# (§3) The assays were preformed in quadruple for each concentration (0.01-10 µM) in at least three independent experiments. […] The values of luciferase activity obtained were analyzed using the one-way ANOVA statistic test. The differences were considered significant when P was less than […] (P < 0.05).
# [2] = system: inflammation induced by phorbol 12-myristate-13-acetate (PMA); assay: Topical anti-inflammatory activity: ear inflammation induced by PMA in mice; assay type: in vivo; design: RE / RE Average: unit not given here; conditions: for LE Average: left ear (non treated); for LE Average / RE Average: group average; for RE Average: right ear (treated); for LE: weight of 6 mm portion of left ear (non treated); for LE / RE: individual mice; for RE: weight of 6 mm portion of right ear (treated)
# Method: The topical anti-inflammatory activity of p-nitrolophine has been analyzed in this study since erythema is a inflammatory process. Specifically, the inhibition of inflammation induced by phorbol 12-myristate-13-acetate (PMA) was evaluated and compared with an anti-inflammatory product of reference (indometacin). 37 mice were divided into the following groups: positive control group (PMA 0.5 mg); negative control group (indometacin 0.5 mg); treated groups (0.5 mg and 1 mg of p-nitrolophine). All the solutions were prepared using acetone (ppa) as vehicle. 20 µL of solution of 25 mg/mL of phorbol 12-myristate-13-acetate (PMA) [Fluka cod 79346] (10 µL in each face) was administered in the right ear of each mouse. Immediately after administering the PMA, nothing more was administered into the positive control group; 20 µL of the solution of 25 mg/mL of indometacin was administered to the negative control group, and 20 µL of the solution of 25 or 50 mg/mL of 4-nitrolophine was administered in the same manner to the treated groups. Animals having no lesions or skin and ear irritation were used.
# After 4 hours of post-treatment, the mice were sacrificed through cervical fracture and a portion of 6 mm in diameter was obtained from each ear with a hollow punch which was weight in precision analytical balance. The difference in weight (Δ) between the right ear (treated) and the left ear (non treated) for each animal and for each group were calculated. The percentage of inhibition (% inh) was estimated and calculated according to the following equation: % inh = 100(1-Δt/Δc) [formula] wherein Δt represents the difference in the treated groups and Δc the difference for the […].
# In order to analyze the results, an one way ANOVA and Dunnet test for multiple comparison was used, values of P<0.05 were considered significant. A software, Graphpad Instat Version 3.06, was used for such purposes.
# [3] = biological target: T2, estrogen receptor alpha (ERα) (Homo sapiens, UniProt P03372); assay: Estrogenicity reporter gene bioassay (luciferase activity) in MELN cells; assay type: cell-based
# T2 construct: which endogenously express the estrogen receptor alpha (ERα); endogenous in cells; host or cells: MELN (MCF-7 stably transfected with ERE-βGlob-Luc-SV-Neo)
# T2 sequence (P03372 1-595): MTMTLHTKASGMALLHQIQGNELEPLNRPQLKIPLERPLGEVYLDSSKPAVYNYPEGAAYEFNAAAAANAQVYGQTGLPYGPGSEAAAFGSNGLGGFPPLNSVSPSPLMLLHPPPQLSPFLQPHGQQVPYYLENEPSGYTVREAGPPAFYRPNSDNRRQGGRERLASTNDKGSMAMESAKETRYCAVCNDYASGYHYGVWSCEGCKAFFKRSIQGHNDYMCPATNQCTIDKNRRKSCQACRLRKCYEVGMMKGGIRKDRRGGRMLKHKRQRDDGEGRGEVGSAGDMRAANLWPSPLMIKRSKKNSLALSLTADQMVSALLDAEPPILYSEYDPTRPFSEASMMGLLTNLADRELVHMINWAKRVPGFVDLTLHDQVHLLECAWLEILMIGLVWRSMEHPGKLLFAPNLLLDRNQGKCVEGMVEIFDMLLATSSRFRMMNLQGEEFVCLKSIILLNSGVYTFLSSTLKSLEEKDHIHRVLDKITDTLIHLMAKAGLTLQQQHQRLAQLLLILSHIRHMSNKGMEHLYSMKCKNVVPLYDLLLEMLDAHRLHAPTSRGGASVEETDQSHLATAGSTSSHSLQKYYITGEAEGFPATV
# Excerpt: as §1
# MELN cells were obtained by means of transfecting the MCF-7 breast cancer cell line [which endogenously express the estrogen receptor alpha (ERα)] with an estrogen sensitive response element (ERE-βGlob-Luc-SV-Neo). The selection of clones resistant to geneticin was performed using a concentration of 1 mg/mL. The maintenance medium for this cell line is DMEM F12 (Dulbecco's modified Eagle medium) with phenol red supplemented with 10% FBS, 1% of penicillin/streptomycin and 1 mg/mL of geneticin. Due to the estrogenic activity of the phenol red and FBS, the experiments are preformed in medium known as experimental medium, i.e., a culture medium without phenol red and with FBS lacking of estrogens. The experimental medium for this line is DMEM without phenol red supplemented with 3% of FBS treated with carbon-dextran.
# as §2, §3
# T1 sequence (Q92731 whole entry, species assumed): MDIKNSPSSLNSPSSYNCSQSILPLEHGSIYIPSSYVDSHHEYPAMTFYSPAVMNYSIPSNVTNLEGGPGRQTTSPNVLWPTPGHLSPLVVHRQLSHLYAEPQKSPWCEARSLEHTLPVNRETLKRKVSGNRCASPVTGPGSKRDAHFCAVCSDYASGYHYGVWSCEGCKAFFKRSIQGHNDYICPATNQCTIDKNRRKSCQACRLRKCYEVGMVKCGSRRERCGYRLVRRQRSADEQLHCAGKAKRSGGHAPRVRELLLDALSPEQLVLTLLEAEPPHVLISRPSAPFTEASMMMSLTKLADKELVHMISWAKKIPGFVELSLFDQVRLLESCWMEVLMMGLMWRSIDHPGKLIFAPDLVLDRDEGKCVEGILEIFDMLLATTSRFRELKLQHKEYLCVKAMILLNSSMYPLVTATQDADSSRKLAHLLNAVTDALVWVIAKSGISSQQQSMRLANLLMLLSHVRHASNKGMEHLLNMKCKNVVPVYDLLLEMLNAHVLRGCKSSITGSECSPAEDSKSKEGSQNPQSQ
compound,measurement,setting,value
"O=[N+]([O-])c1ccc(-c2nc(-c3ccccc3)c(-c3ccccc3)[nH]2)cc1 [p-nitrolophine, 2-(4-nitrophenyl)-4,5-diphenyl-1H-imidazole]",activity at 0.01 µM,[1],9.6 ± 1.4%
same,activity at 0.03 µM,[1],10 ± 0.8%
same,activity at 0.1 µM,[1],10.2 ± 1.3%
same,activity at 0.3 µM,[1],10.3 ± 1.1%
same,activity at 1 µM,[1],10.1 ± 1.3%
same,activity at 3 µM,[1],10.2 ± 1.9%
same,activity at 10 µM,[1],10.6 ± 1.2%
same,estrogenicity,"[1]; HELN-ERβ line, conclusion in words",not an estrogenic compound
same,% inhibition,[2]; 4 hours,100** (q = 9.5) %
same,Average (Δ = RE - LE),"[2]; Dose (mg/ear) 0.5, 4 hours",-0.13
same,% inhibition,"[2]; Dose (mg/ear) 1, n=4, tendency, not statistically compared",~90%
same,Average (Δ = RE - LE),"[2]; Dose (mg/ear) 1, n=4, 4 hours",0.52
same,LE Average,"[2]; 0.5 mg group, 4 hours",6.7
same,LE Average,"[2]; 1 mg group, 4 hours",5.9
same,RE Average,"[2]; 0.5 mg, 4 hours",6.6
same,RE Average,"[2]; 1 mg, 4 hours",6.4
same,LE,"[2]; 0.5 mg group, 4 hours, listed as 4-nitrolophine",9.9 and 7.5 (2×) and 6.2 (2×) and 6.4 and 6.7 (2×) and 5.6 and 5.2 and 5.9 and 7.8 and 6
same,LE,"[2]; 1 mg group, 4 hours, listed as 4-Nitrolophine","5.6 and 5.8 and 5,5 and 6.6"
same,RE,"[2]; 0.5 mg, 4 hours, listed as 4-nitrolophine",7.3 and 7 and 5.9 (2×) and 5.6 and 6.6 (2×) and 7.2 and 7.8 and 6.5 and 6 and 7.7 and 5.8
same,RE,"[2]; 1 mg, 4 hours, listed as 4-Nitrolophine",5.9 and 7.3 and 6.2 (2×)
same,activity at 0.01 µM,[3],15.2 ± 0.6%
same,activity at 0.03 µM,[3],15.3 ± 0.5%
same,activity at 0.1 µM,[3],15.6 ± 0.3%
same,activity at 0.3 µM,[3],15.5 ± 0.9%
same,activity at 1 µM,[3],16 ± 0.4%
same,activity at 3 µM,[3],15.2 ± 0.4%
same,activity at 10 µM,[3],15.6 ± 0.9%
same,estrogenicity,"[3]; MELN cells, up to 10 µM, conclusion in words",not an estrogenic compound
